Literature values, collected in US12116371B2, “Substituted pyridines as irreversible inhibitors of menin-MLL interaction” (BIOMEA FUSION, INC., priority 2018, dated 2024).

Biological target: T1, menin-MLL protein-protein interaction (Homo sapiens, UniProt O00255)
T1 sequence (O00255 1-610): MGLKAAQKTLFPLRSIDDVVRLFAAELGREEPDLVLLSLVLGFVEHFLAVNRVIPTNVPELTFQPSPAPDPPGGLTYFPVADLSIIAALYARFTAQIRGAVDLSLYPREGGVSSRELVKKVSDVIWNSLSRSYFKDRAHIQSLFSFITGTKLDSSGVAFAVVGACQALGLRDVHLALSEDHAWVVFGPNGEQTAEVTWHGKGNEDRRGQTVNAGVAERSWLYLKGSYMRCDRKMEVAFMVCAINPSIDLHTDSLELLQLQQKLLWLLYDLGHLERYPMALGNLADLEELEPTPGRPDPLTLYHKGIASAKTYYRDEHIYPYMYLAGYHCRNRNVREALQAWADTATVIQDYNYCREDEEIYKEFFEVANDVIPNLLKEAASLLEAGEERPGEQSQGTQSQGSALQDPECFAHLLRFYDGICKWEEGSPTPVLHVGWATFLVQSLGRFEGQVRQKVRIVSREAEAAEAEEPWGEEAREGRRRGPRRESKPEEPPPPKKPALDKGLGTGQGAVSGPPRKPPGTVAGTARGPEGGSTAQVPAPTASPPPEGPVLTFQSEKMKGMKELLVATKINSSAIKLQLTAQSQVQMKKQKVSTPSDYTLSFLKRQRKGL
Settings: S. Xu et al. Angewandte Chemie; cited from earlier work

In the case of `COC(=O)N[C@H]1CCC[C@@H]1[C@](C#N)(c1cccc(F)c1)C1CCN(CC2CN(c3ccc(S(=O)(=O)C4CN(C(=O)/C=C/CN(C)C)C4)cc3)C2)CC1` [Compound M-525], the “potency relative to the corresponding reversible inhibitors” value is given as over 30 times.
